“Also recorded” adds a separate entry of the source.

For experiment [1], the system named is SH-SY5Y human neuroblastoma cells. As to the kind of experiment: Neuroprotection against H2O2-induced toxicity, MTT cell viability assay. Type of experiment: cell-based. The settings on record: 50 μM compound, 100 μM H2O2, 24 h, 37 °C. From the text:
Neuroprotective activity assays against H2O2-induced toxicity. On the basis of previously described protocols, the flavones and analogues herein synthesized were screened for their neuroprotective effects against H2O2-induced oxidative stress and neuronal damage in SH-SY5Y human neuroblastoma cells by means of a thiazolyl blue tetrazolium bromide (MTT) reduction-based cell viability assay.
(§1) Neuroprotective assays in human neuroblastoma (SH-SY5Y) cells. […] Differences were considered significant when P < 0.05.

The target in experiment [2] is T1, butyrylcholinesterase (BuChE) (Equus caballus, UniProt P81908).
T1 construct: (BuChE, equine serum); from tissue; host or cells: equine serum
As to the kind of experiment: biochemical. The settings on record: 100 µM compound. As for the experimental part: Experimental procedures for cholinesterase inhibition a s sa y s. For cholinesterase inhibition tests (acetylcholinesterase (AChE, electrophorus
el ec t r ic u s) a n d b ut yr ylcholinesterase (BuChE, equine serum), the Ellman’s cholorimetric assay1 was followed, with minor modifications. DMSO
was kept within 1.25% cuvette concentration. The chromogenic agent DTNB [5,5’-dithiobis(2-nitrobenzoic acid)] was fixed at 0.975 mM
con centration; 0. 1 M phosphate buffer (pH 8. 0) was employed, T = 25 °C, and the reaction was monitored for 125 s. […]
of inhibition, the substrate concentration (acetylthiocholine iodide for AChE; S- butyr ylthiocholine iodide for BuChE) was fixed at 29 µM for
AChE and at 18.2 µM concentration for BuChE.
Lineweaver-Burk plot (or double reciprocal plot, 1/V vs . 1/ [S ]) wa s u se d for estimating both, the mode of inhibition and the inhibition constants […]
Competitive inhibition (inhibitor only bonds the free enzyme):
KKiiii = [II ]KKMM iiaaaa
M i xe d inhibition (inhibitor binds both, the free and the complexed enzyme) :
Uncompetitive (the inhibitors only binds the complexed enzyme):
N on -competitive (inhibitor binds both the free enzyme and the complexed enzyme with equal affinity) :
Table S3. […]
of the synthesized flavone analogues at 100 µ M.
C omp ou n d N o. AChE B uChE

The subject of experiment [3] is SH-SY5Y human neuroblastoma cells. The experiment is described as follows: Neuroprotection against Aβ1-42-induced toxicity, MTT cell viability assay. Type of experiment: cell-based. The settings on record: 50 μM compound, 20 μM Aβ1-42, 24 h, 37 °C. The protocol: Neuroprotective activity assays against Aβ1-42-induced toxicity. From all compounds tested in the above presented assay, the pair 8 and 19 presented the strongest neuroprotective potential, with convincing proof on the importance of the aglycone for the desired neuroprotective effects against H2O2-induced cell injury. […] Here, the MTT assay was used once again to assess cell viability of SH-SY5Y cells treated with 20 μM of Aβ1-42, in the presence of 50 μM of each compound. Similar protocols have been used to screen candidates for AD therapy. Moreover, based on the existing evidence that in situ spontaneous fibrillization of Aβ1-42 in the incubation mixture is important in the triggering of neurotoxic effects, we added the Aβ1-42 peptide fragment dissolved in DMSO to the culture medium prior to incubation, together with each compound in study. […] Even though there is published evidence that undifferentiated SH-SY5Y cells are not as sensitive to Aβ1-42-induced neurite degeneration and apoptosis as differentiated ones, with 20 μM of Aβ1-42 we were able to observe a significant decrease in cellular MTT reduction capacity, corresponding to roughly half of the cell viability rates observed in the non-treated control.
as §1
On the technique in general: Tetrazolium assays rely on reduction of a dye to a coloured formazan, in cell work by metabolically active cells.

T1 sequence (P81908 whole entry): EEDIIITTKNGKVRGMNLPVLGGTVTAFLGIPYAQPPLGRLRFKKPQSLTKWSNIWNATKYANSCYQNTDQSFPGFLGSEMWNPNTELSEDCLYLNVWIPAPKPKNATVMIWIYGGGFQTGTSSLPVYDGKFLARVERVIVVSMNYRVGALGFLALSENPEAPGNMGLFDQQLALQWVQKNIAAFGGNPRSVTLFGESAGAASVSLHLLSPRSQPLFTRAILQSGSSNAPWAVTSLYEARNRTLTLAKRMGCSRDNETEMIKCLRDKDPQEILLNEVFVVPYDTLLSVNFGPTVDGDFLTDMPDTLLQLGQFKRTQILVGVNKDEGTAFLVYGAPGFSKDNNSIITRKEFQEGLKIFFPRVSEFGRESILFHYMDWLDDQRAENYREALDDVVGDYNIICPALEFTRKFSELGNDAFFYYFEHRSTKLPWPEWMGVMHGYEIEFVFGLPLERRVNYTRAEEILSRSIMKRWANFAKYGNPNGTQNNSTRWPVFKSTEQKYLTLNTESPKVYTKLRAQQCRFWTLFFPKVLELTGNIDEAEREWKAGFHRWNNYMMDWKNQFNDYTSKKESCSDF

On to `O=c1cc(-c2ccc(N3CCOCC3)cc2)oc2c([C@@H]3O[C@H](CO)[C@@H](O)[C@H](O)[C@H]3O)c(O)cc(O)c12` [Compound 19, 8-(β-D-Glucopyranosyl)-5,7-dihydroxy-4′-(morpholin-4-yl)flavone], for which the “Neuroprotective effect against H2O2-induced toxicity (MTT cell viability)” value in experiment [1] is reported as “able to produce statistically significant differences when compared to H2O2 controls”; in experiment [1] (listed as 37), “fully rescued”. The “BuChE inhibitory efficacy (percentage of inhibition)” value in experiment [2] is “n.i ”. Further, the “Neuroprotective effect against Aβ1-42-induced toxicity (MTT cell viability)” value in experiment [3] is given as “the result with the highest significance when compared to controls; also recorded: the result with the highest significance when compared to the controls”; in experiment [3] (listed as 37), “fully rescued”.
